The text below walks through data of PubChem BioAssay AID256 (DTP/NCI, 2004).

The experiment concerns CD2F1 mice, L1210 leukemia ip, survival T/C. In words: NCI In Vivo Anticancer Drug Screen. Data for tumor model L1210 Leukemia (intraperitoneal) in CD2F1 (CDF1) mice. To be noted: higher = longer survival. The procedure, abridged:
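Antitumor effect is scored in animals hosting a serially transplanted tumor. Values compare compound-dosed animals against vehicle-only controls as a simple quotient.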

Setting [1] is: endpoint: mean survival time, dose: 50.0 mg/kg/injection, schedule: Q01DX009 (ip), vehicle: saline.
The mark [2] stands for this setting: endpoint: mean survival time, dose: 100.0 mg/kg/injection, schedule: Q01DX001 (ip), vehicle: saline with Tween-80.
Where [3] appears, read: endpoint: mean survival time, dose: 200.0 mg/kg/injection, schedule: Q01DX001 (ip), vehicle: saline with Tween-80.
[4] abbreviates: endpoint: mean survival time, dose: 12.5 mg/kg/injection, schedule: Q01DX009 (ip), vehicle: Klucel (hydroxypropylcellulose) (HPC).
[5] abbreviates: endpoint: mean survival time, dose: 50.0 mg/kg/injection, schedule: Q01DX009 (ip), vehicle: Klucel (hydroxypropylcellulose) (HPC).
[6] abbreviates: endpoint: mean survival time, dose: 100.0 mg/kg/injection, schedule: Q01DX009 (ip), vehicle: Klucel (hydroxypropylcellulose) (HPC).
[7] abbreviates: endpoint: mean survival time, dose: 200.0 mg/kg/injection, schedule: Q01DX009 (ip), vehicle: Klucel (hydroxypropylcellulose) (HPC).
The mark [8] stands for this setting: endpoint: mean survival time, dose: 400.0 mg/kg/injection, schedule: Q01DX009 (ip), vehicle: Klucel (hydroxypropylcellulose) (HPC).
[9] abbreviates: endpoint: mean survival time, dose: 100.0 mg/kg/injection, schedule: Q04DX003 (ip), vehicle: saline with Tween-80.
[10] abbreviates: endpoint: mean survival time, dose: 200.0 mg/kg/injection, schedule: Q04DX003 (ip), vehicle: saline with Tween-80.
Where [11] appears, read: endpoint: mean survival time, dose: 400.0 mg/kg/injection, schedule: Q04DX003 (ip), vehicle: saline with Tween-80.
The mark [12] stands for this setting: endpoint: mean survival time, dose: 100.0 mg/kg/injection, schedule: Q01DX009 (ip), vehicle: saline with Tween-80.
Setting [13] is: endpoint: mean survival time, dose: 200.0 mg/kg/injection, schedule: Q01DX009 (ip), vehicle: saline with Tween-80.
[14] abbreviates: endpoint: mean survival time, dose: 50.0 mg/kg/injection, schedule: Q01DX009 (ip), vehicle: saline with Tween-80.

Values joined by “and” are separate entries in the source; they are usually repeats but may differ in a detail not shown here. Equal values may be shown once. Toxic doses and inconclusive results are not listed.

Consider `O=S(=O)(O)SCCN1CCCCC1`, for which the T/C is, setting by setting: (endpoint: mean survival time, dose: 12.5 mg/kg/injection, schedule: Q01DX009 (ip), vehicle: saline) 104 % of control; (endpoint: mean survival time, dose: 12.5 mg/kg/injection, schedule: Q04DX003 (ip), vehicle: saline sonified) 102 % of control; (endpoint: mean survival time, dose: 25.0 mg/kg/injection, schedule: Q01DX009 (ip), vehicle: saline) 106 % of control; (endpoint: mean survival time, dose: 25.0 mg/kg/injection, schedule: Q04DX003 (ip), vehicle: saline sonified) 101 % of control; under setting [1], 104 % of control; (endpoint: mean survival time, dose: 50.0 mg/kg/injection, schedule: Q04DX003 (ip), vehicle: saline sonified) 91 % of control.

Take `COc1ccc(CCF)cc1`: the T/C runs as follows: under setting [2], 110 % of control; under setting [3], 100 % of control; (endpoint: mean survival time, dose: 400.0 mg/kg/injection, schedule: Q01DX001 (ip), vehicle: saline with Tween-80) 114 % of control.

With `O=C1CC2(C(=O)N1CN1CCCCC1)c1ccccc1-c1ccccc12`, the T/C was 94 % of control and 102 % of control under setting [4]; 91 % of control and 105 % of control (endpoint: mean survival time, dose: 25.0 mg/kg/injection, schedule: Q01DX009 (ip), vehicle: Klucel (hydroxypropylcellulose) (HPC)); 98 % of control and 100 % of control under setting [5]; 94 % of control and 102 % of control under setting [6]; 100 % of control under setting [7]; 158 % of control under setting [8].

As for `CN(C)N=Nc1ccccc1C(=O)NNC(=O)CC#N`, the T/C runs as follows: (endpoint: mean survival time, dose: 18.75 mg/kg/injection, schedule: Q01DX009 (ip), vehicle: Klucel (hydroxypropylcellulose) (HPC)) 88 % of control and 97 % of control; (endpoint: mean survival time, dose: 37.5 mg/kg/injection, schedule: Q01DX009 (ip), vehicle: Klucel (hydroxypropylcellulose) (HPC)) 92 % of control and 100 % of control; (endpoint: mean survival time, dose: 75.0 mg/kg/injection, schedule: Q01DX009 (ip), vehicle: Klucel (hydroxypropylcellulose) (HPC)) 93 % of control and 111 % of control; (endpoint: mean survival time, dose: 150.0 mg/kg/injection, schedule: Q01DX009 (ip), vehicle: Klucel (hydroxypropylcellulose) (HPC)) 113 % of control and 102 % of control; (endpoint: mean survival time, dose: 300.0 mg/kg/injection, schedule: Q01DX009 (ip), vehicle: Klucel (hydroxypropylcellulose) (HPC)) 120 % of control and 111 % of control.

Turning to `O=C(O)CCCCCCCCC(=O)c1ccccc1`, the T/C under setting [9] was 97 % of control, the T/C under setting [10] was 95 % of control and the T/C under setting [11] was 88 % of control.

Regarding `Cc1[nH]c(=O)c(Br)cc1Br`, the T/C runs as follows: under setting [9], 98 % of control; under setting [10], 101 % of control; under setting [11], 101 % of control.

For the molecule `CC1OC(n2ccc(=O)[nH]c2=O)C2OC(C)(C)OC2C1=O` (configuration not stated), the T/C (endpoint: median survival time, dose: 12.5 mg/kg/injection, schedule: Q01DX005 (ip), vehicle: saline with Tween-80) was 109 % of control; the T/C (endpoint: median survival time, dose: 25.0 mg/kg/injection, schedule: Q01DX005 (ip), vehicle: saline with Tween-80) is 97 % of control; the T/C (endpoint: median survival time, dose: 50.0 mg/kg/injection, schedule: Q01DX005 (ip), vehicle: saline with Tween-80) was 97 % of control; the T/C (endpoint: median survival time, dose: 100.0 mg/kg/injection, schedule: Q01DX005 (ip), vehicle: saline with Tween-80) is 101 % of control; the T/C (endpoint: median survival time, dose: 200.0 mg/kg/injection, schedule: Q01DX005 (ip), vehicle: saline with Tween-80) is 101 % of control.

For the molecule `O=S(=O)(OC1CCCCC1Cl)c1ccc(Br)cc1` (configuration not stated), the T/C is, setting by setting: under setting [9], 102 % of control; under setting [10], 94 % of control; under setting [11], 94 % of control.

Consider `Cc1ccc(O)c(/C=N/NC(N)=S)n1`, for which the T/C is 103 % of control (endpoint: mean survival time, dose: 12.5 mg/kg/injection, schedule: Q03HX024 (ip), vehicle: saline); 102 % of control (endpoint: mean survival time, dose: 25.0 mg/kg/injection, schedule: Q03HX024 (ip), vehicle: saline); 103 % of control (endpoint: mean survival time, dose: 50.0 mg/kg/injection, schedule: Q03HX024 (ip), vehicle: saline).

Turning to `CC12CCC(=O)C=C1CCCC2=O` (configuration not stated), the T/C is 98 % of control under setting [1] and 96 % of control (endpoint: mean survival time, dose: 100.0 mg/kg/injection, schedule: Q01DX009 (ip), vehicle: saline).

Turning to `CC(C)(C)c1ccc(O)cc1`, the T/C reads like this: under setting [9], 94 % of control; under setting [10], 95 % of control; under setting [11], 88 % of control.

On to `O=[N+]([O-])O.[Ga]`, for which the T/C (endpoint: mean survival time, dose: 50.0 mg/kg/injection, schedule: Q01DX Z (ip), vehicle: saline) is 119 % of control.

With `Cc1ccc(C(=O)Nc2ccccc2I)cc1`, the T/C reads like this: under setting [12], 97 % of control; under setting [13], 101 % of control; (endpoint: mean survival time, dose: 400.0 mg/kg/injection, schedule: Q01DX009 (ip), vehicle: saline with Tween-80) 97 % of control.

For `Cn1c2c(c3ccccc31)CCCC2=O`, the T/C (endpoint: mean survival time, dose: 100.0 mg/kg/injection, schedule: Q01DX001 (ip), vehicle: saline) was 106 % of control; the T/C (endpoint: mean survival time, dose: 200.0 mg/kg/injection, schedule: Q01DX001 (ip), vehicle: saline) is 97 % of control; the T/C (endpoint: mean survival time, dose: 400.0 mg/kg/injection, schedule: Q01DX001 (ip), vehicle: saline) was 93 % of control.

Regarding `C=CCNC(=S)NCCO`, the T/C under setting [14] is 97 % of control; the T/C (endpoint: mean survival time, dose: 50.0 mg/kg/injection, schedule: Q04DX003 (ip), vehicle: saline with Tween-80) was 111 % of control; the T/C under setting [12] was 100 % of control; the T/C under setting [9] was 103 % of control; the T/C under setting [13] is 94 % of control; the T/C under setting [10] is 103 % of control.

As for `COc1cc(/C=C\[N+](=O)[O-])c([N+](=O)[O-])cc1OCc1ccccc1`, the T/C under setting [2] was 94 % of control and the T/C under setting [3] was 97 % of control.

`CCOC(=O)C1C2OC(=O)C(C(=O)C2CN(CCCl)CCCl)C1C1CC=C(CC2=CCC(C3C4C(=O)OC(C(CN(CCCl)CCCl)C4=O)C3C(=O)OCC)CC2)CC1` (configuration not stated): the T/C reads like this: (endpoint: mean survival time, dose: 6.25 mg/kg/injection, schedule: Q01DX009 (ip), vehicle: Klucel (hydroxypropylcellulose) (HPC)) 121 % of control; under setting [4], 121 % of control; under setting [5], 154 % of control and 162 % of control; under setting [6], 154 % of control and 232 % of control; under setting [7], 111 % of control; under setting [8], 88 % of control.

In the case of `N#Cc1cccnc1Cl`, the T/C was 100 % of control (endpoint: median survival time, dose: 50.0 mg/kg/injection, schedule: Q04DX002 (ip), vehicle: saline with Tween-80); 100 % of control (endpoint: median survival time, dose: 100.0 mg/kg/injection, schedule: Q04DX002 (ip), vehicle: saline with Tween-80); 111 % of control (endpoint: median survival time, dose: 200.0 mg/kg/injection, schedule: Q04DX002 (ip), vehicle: saline with Tween-80).

As for `c1ccc(NC2=NCCO2)nc1`, the T/C reads like this: under setting [2], 101 % of control; under setting [3], 100 % of control.

As for `C[C@@H]1C[C@@]2(C)[C@@H](CC[C@@H]3[C@@H]2CC[C@@]2(C)[C@H]3CC[C@]2(C)O)CC1=O`, the T/C runs as follows: (endpoint: mean survival time, dose: 25.0 mg/kg/injection, schedule: Q01DX009 (ip), vehicle: saline with Tween-80) 95 % of control; under setting [14], 95 % of control; under setting [12], 94 % of control; under setting [9], 91 % of control.
